According to US6495577B2, “Pesticidal composition” (Aventis CropScience GmbH, priority 2000, dated 2002):

Tested on: Trialeurodes vaporariorum
Experiment: Mortality of whitefly nymphs on sprayed French bean plants (greenhouse)
Assay type: in vivo
Settings: 240 h, 10 days after application
Text: The invention is illustrated in the following Example which describe experiments in which a synergistic effect was observed. The desired concentration of the active ingredients was achieved by diluting, with water, the commercially available 25% by volume emulsifiable concentrate of deltamethrin and 20% by weight water soluble powder of acetamiprid, each of which contained conventional surfactants.
Two plants of two week old French beans (Phaseolus vulgaris) were infested with adult whitefly (Trialeurodes vaporariorum) for oviposition in a closed chamber. After 48 hours, the adults were blown off the plants so that only the eggs stayed at the surface of the leaves. The plants were placed in a greenhouse for 7 days to complete the development of the eggs to the larval stage L 1/2. The plants were then sprayed with the individual compounds and mixtures of the two, by hand with a spray gun, until complete coverage of the plant surfaces with the spray liquid was obtained. The plants were then placed in the greenhouse for a further 10 days. Two replicates of each test was carried. The mortality of the nymphs of Trialeurodes vaporadorum was estimated 10 days after application and the average of the two replicates calculated.
To indicate the existence of synergism between the active components, the results were treated in the manner described by Colby S. R., “Calculating Synergistic and Antagonistic Responses of Herbicide Combinations,” Weeds, 1967, 15, 20-22. In this method, the “expected” percent control, E, of the combination is given by the equation: [formula]
The LC50 in ppm of the mixtures was calculated and compared with the expected LC50 from the expected mortalities according to Colby.

| SMILES | mortality at 0.1 ppm (acetamiprid 0,1 ppm alone) [%] | mortality at 0.03 ppm (acetamiprid 0,03 ppm alone) [%] | mortality at 0.3 ppm (acetamiprid 0,3 ppm alone) [%] | mortality at 1 ppm (acetamiprid 1 ppm alone) [%] | mortality at 3 ppm (acetamiprid 3 ppm alone) [%] | mortality at 0.01 ppm (deltamethrin 0,01 ppm alone) [%] | mortality at 0.1 ppm (deltamethrin 0,1 ppm alone) [%] | mortality at 0.02 ppm (deltamethrin 0,02 ppm alone) [%] | mortality at 0.2 ppm (deltamethrin 0,2 ppm alone) [%] | mortality at 0.06 ppm (deltamethrin 0,06 ppm alone) [%] | mortality at 0.6 ppm (deltamethrin 0,6 ppm alone) [%] | mortality at 0.33 ppm (deltamethrin 0,33 ppm alone) [%] | mortality at 1 ppm (deltamethrin 1 ppm alone) [%] | mortality at 0.006 ppm (deltamethrin 0,006 ppm alone) [%] | mortality at 0.033 ppm (deltamethrin 0,033 ppm alone) [%] |
| --- | --- | --- | --- | --- | --- | --- | --- | --- | --- | --- | --- | --- | --- | --- | --- |
| C/C(=N\C#N)N(C)Cc1ccc(Cl)nc1 [acetamiprid, E-N^1-[(6-chloro-3-pyridylmethyl)]-N^2-cyano-N^1-methylacetamidine] | 1.25 | 0 | 7.5 | 23.8 | 56.2 | – | – | – | – | – | – | – | – | – | – |
| CC1(C)[C@H](C(=O)O[C@H](C#N)c2cccc(Oc3ccccc3)c2)[C@@H]1C=C(Br)Br [deltamethrin, (S)-α-cyano-3-phenoxybenzyl (1R,3R)-3-(2,2-dibromvinyl)-2,2-dimethylcyclopropanecarboxylate] | – | – | – | – | – | 0.75 | 25 | 2.5 | 36.2 | 15 | 47.5 | 47.5 | 73.8 | 0 | 8.75 |
